Data on one substance can be found in publication PMC10741037, “A Peptoid-Chelator Selective to Cu^2+ That Can Extract Copper from Metallothionein-2 and Lead to the Production of ROS” (Antioxidants, 2023).

This test in a line: Kinetics of ascorbate consumption assay (ROS production). The following applies: MT-2 + Cu2+ + Asc; [MT-2] = 1.6 μM, [Cu2+] = 9 μM, [Asc] = 100 μM, HEPES 10 mM pH = 7.4, absorbance at 265 nm. The format is biochemical. The protocol: Reagents, except the peptoid and protein, were commercially available and were used as received. All the solutions were prepared in milliQ water (resistance: 18.2 MΩ) immediately before experiments. A stock solution of HEPES buffer was prepared at 500 mm, pH = 7.4, and then diluted to 10 mM. Sodium ascorbate was prepared at 5 mm each day because of the quick degradation of the ascorbate. All pH values are given with a ±0.2 pH unit error. UV/Vis kinetics and ROS kinetic experiments were recorded with a spectrophotometer Agilent Cary 60 UV/Vis spectrophotometer (Agilent Technologies, Mulgrave, Australia), a double-beam, Czerny–Turner monochromator with external stirrer of cuvette holder, in 1 cm path-length quartz cuvettes, with 800 rpm stirring. The samples were prepared from stock solutions of MT-2, TB, Cu^2+, diluted to 1.6, 10, and 9 µM, respectively, in 10 mM HEPES solution, pH = 7.4. Ascorbate was diluted to 100 µM. […]
First, we investigated whether CuTB can produce ROS by itself. In a typical experiment, 1 equiv. of TB was mixed with 0.9 equiv. of Cu^2+ in HEPES buffer (10 mM, pH = 7.4) in a quartz cuvette under aerobic conditions, and after the formation of the metallopeptoid was confirmed by the stability of its UV/Vis spectrum, sodium ascorbate (Asc) was added to the cuvette and the changes in the absorbance at 265 nm were monitored by UV/Vis (ε = 14,500 M^−1 cm^−1). […]

With “CuMT-2: complex of metallothionein-2 (MT-2) with 6 equiv. of Cu2+”, the “ascorbate consumption / redox activity” value is on record as “redox silent”.
